As a reminder, the inhibition is the relative decrease from the control value, in per cent.

Experiment [1] concerns the target T1, human B1R receptor (hB1R) (Homo sapiens, UniProt P46663).
T1 construct: expressed in transfected cells; host or cells: CHO K1 cells (Chinese hamster ovary), stably transfected
T1 sequence (P46663 1-353): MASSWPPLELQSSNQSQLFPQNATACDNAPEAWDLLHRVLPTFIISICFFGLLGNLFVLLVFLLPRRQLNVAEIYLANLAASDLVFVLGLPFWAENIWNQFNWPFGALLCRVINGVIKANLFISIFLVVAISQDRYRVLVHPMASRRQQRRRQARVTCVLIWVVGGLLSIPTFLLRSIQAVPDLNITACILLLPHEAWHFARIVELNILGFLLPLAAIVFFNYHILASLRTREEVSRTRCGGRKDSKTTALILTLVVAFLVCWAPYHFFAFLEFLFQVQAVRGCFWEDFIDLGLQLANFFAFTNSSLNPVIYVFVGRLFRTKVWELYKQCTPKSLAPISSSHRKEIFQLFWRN
Put plainly: Functional FLIPR Ca2+ assay on the bradykinin 1 receptor, human (hB1R CHO K1 cells). In kind it is cell-based. Particulars: test substance 10 μM; CHO K1 cells transfected with human B1R gene; agonist Lys-Des-Arg9-bradykinin at EC80; % inhibition compared with maximum achievable inhibition; read-out: B1R antagonism, human (10 μM] % inhibition. The method, then: The agonistic or antagonistic action of substances can be quantified on the bradykinin 1 receptor (B1R) of the human and rat species with ectopically expressing cell lines (CHO K1 cells) and with the aid of a Ca^2+-sensitive dyestuff (Fluo-4) in a fluorescent imaging plate reader (FLIPR). The figure in % activation is based on the Ca^2+ signal after addition of Lys-Des-Arg^9-bradykinin (0.5 nM) or Des-Arg^9-bradykinin (100 nM). Antagonists lead to a suppression of the Ca^2+ inflow after addition of the agonist. % inhibition compared with the maximum achievable inhibition is stated.
The agonistic or antagonistic action of substances can be determined on the bradykinin 1 receptor (B1R) of the human and rat species with the following assay. In accordance with this assay, the Ca^2+ inflow through the channel is quantified with the aid of a Ca^2+-sensitive dyestuff (type Fluo-4, Molecular Probes Europe BV, Leiden, Holland) in a fluorescent imaging plate reader (FLIPR, Molecular Devices, Sunnyvale, USA).
Chinese hamster ovary cells (CHO K1 cells) transfected stably with the human B1R gene (hB1R cells) or the B1R gene of the rat (rB1R cells) are used. For functional studies, these cells are plated out on black 96-well plates with a clear base (BD Biosciences, Heidelberg, Germany or Greiner, Frickenhausen, Germany) in a density of 20,000-35,000 cells/well. The cells are left overnight at 37° C. and 5% CO2 in culture medium (hB1R cells: Nutrient Mixture Ham's F12, Gibco Invitrogen GmbH, Karlsruhe, Germany or DMEM, Sigma-Aldrich, Taufkirchen, Germany; rB1R cells: D-MEM/F12, Gibco Invitrogen GmbH, Karlsruhe, Germany) with 10 vol. % FBS (foetal bovine serum, Gibco Invitrogen GmbH, Karlsruhe, Germany or PAN Biotech GmbH, Aidenbach, Germany). On the following day, the cells are loaded for 60 min at 37° C. with 2.13 μM Fluo-4 (Molecular Probes Europe BV, Leiden, Holland) in HBSS buffer (Hank's buffered saline solution, Gibco Invitrogen GmbH, Karlsruhe, Germany) with 2.5 mM probenecid (Sigma-Aldrich, Taufkirchen, Germany) and 10 mM HEPES (Sigma-Aldrich, Taufkirchen, Germany). The plates are then washed 2× with HBSS buffer, and HBSS buffer which additionally contains 0.1% BSA (bovine serum albumin; Sigma-Aldrich, Taufkirchen, Germany), 5.6 mM glucose and 0.05% gelatine (Merck KgaA, Darmstadt, Germany) is added. After a further incubation of 20 minutes at room temperature, the plates are inserted into the FLIPR for the Ca^2+ measurement.
Alternatively, the plates are washed with buffer A (15 mM HEPES, 80 mM NaCl, 5 mM KCl, 1.2 mM CaCl2, 0.7 mM MgSO4, 2 g/l glucose, 2.5 mM probenecid), buffer A is added and the plates are loaded with 2.5 μM Fluo-4 and 0.025% Pluronic F127 (Sigma-Aldrich, Taufkirchen, Germany). Thereafter, the cells are washed 2× with buffer A and incubated for 30 minutes with buffer A, which additionally contains 0.05% BSA and 0.05% gelatine, at room temperature and thereafter inserted into the FLIPR for the Ca^2+ measurement. The Ca^2+-dependent fluorescence is measured here before and after addition of substances (λex=488 nm, λem=540 nm). Quantification is by measurement of the highest fluorescence intensity (FC, fluorescence counts) over time.
The FLIPR protocol consists of 2 additions of substance. Test substances (10 μM) are first pipetted on to the cells and the Ca^2+ inflow is compared with the control (hB1R: Lys-Des-Arg^9-bradykinin >=50 nM; rB1R: Des-Arg^9-bradykinin 10 μM). This gives the figure in % activation based on the Ca^2+ signal after addition of Lys-Des-Arg^9-bradykinin (>=50 nM) or Des-Arg^9-bradykinin (10 μM). After incubation for 10-20 minutes, Lys-Des-Arg^9-bradykinin (hB1R) or Des-Arg^9-bradykinin (rB1R) in the concentration of the EC80 is applied and the inflow of Ca^2+ is likewise determined. Antagonists lead to a suppression of the Ca^2+ inflow. % inhibition compared with the maximum achievable inhibition is calculated. In order to determine the IC50 value, the substances are added in various concentrations. […]

The target of experiment [2] is T2, B1R receptor of the rat (rB1R) (Rattus norvegicus, UniProt P97583).
T2 construct: expressed in transfected cells; host or cells: CHO K1 cells (Chinese hamster ovary), stably transfected
T2 sequence (P97583 1-337): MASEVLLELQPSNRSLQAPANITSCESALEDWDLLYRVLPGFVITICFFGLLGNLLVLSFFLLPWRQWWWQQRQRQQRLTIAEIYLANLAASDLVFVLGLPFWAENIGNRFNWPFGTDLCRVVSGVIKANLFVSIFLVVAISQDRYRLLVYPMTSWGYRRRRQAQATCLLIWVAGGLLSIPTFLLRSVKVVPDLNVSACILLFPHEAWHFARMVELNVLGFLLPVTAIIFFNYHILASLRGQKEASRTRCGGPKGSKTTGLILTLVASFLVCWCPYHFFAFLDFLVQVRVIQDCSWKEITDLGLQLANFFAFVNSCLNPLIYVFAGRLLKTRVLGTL
Description: Functional FLIPR Ca2+ assay on the bradykinin 1 receptor, rat (rB1R CHO K1 cells). In kind it is cell-based. Particulars: test substance 10 μM; CHO K1 cells transfected with rat B1R gene; agonist Des-Arg9-bradykinin at EC80; % inhibition compared with maximum achievable inhibition; read-out: B1R antagonism, rat [10 μM] % inhibition. In short, it runs like this:
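Stably transfected CHO K1 cells expressing human or rat B1R, Fluo-4-loaded, Ca2+ influx read by FLIPR (peak fluorescence). Compounds (10 μM for % activation) preincubated 10-20 min, then EC80 agonist added: Lys-Des-Arg9-bradykinin for human, Des-Arg9-bradykinin for rat; % inhibition versus maximal inhibition, IC50 from concentration series.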

Turning to `COc1cc(C)c(S(=O)(=O)N2CCCCC2COCC(=O)N2CCc3sccc3C2c2ccccc2)c(C)c1` (stereo not shown) [Example 15, 2-((1-(4-methoxy-2,6-dimethylphenylsulfonyl)piperidin-2-yl)methoxy)-1-(4-phenyl-6,7-dihydrothieno[3,2-c]pyridin-5(4H)-yl)ethanone], the figures for the inhibition at 10 µM in experiment [1] and in experiment [2] were 69% and 98%, respectively.
In the case of `Cc1cc(S(=O)(=O)N2CCCCC2CCC(=O)N2CCc3sccc3C2c2ccccc2)c(C)cc1Cl` (stereo not shown) [Example 16, 3-(1-(4-chloro-2,5-dimethylphenylsulfonyl)piperidin-2-yl)-1-(4-phenyl-6,7-dihydrothieno[3,2-c]pyridin-5(4H)-yl)propan-1-one], the inhibition at 10 µM in experiment [1] turned out to be 43%; in experiment [2], 81%.
Regarding `O=C(C[C@@H](NS(=O)(=O)c1ccc2ccccc2c1)c1ccccc1)N1CCc2onc(CN3CCCCC3)c2C1` [Example 17, I—N-(3-oxo-1-phenyl-3-(3-(piperidin-1-ylmethyl)-6,7-dihydroisoxazolo[4,5-c]pyridin-5(4H)-yl)propyl)naphthalene-2-sulfonamide], the inhibition at 10 µM was 49% in experiment [1] and 55% in experiment [2].
As to `CCC1c2ccsc2CCN1C(=O)COCCN(C)S(=O)(=O)c1c(C)cc(OC)cc1C` (stereo not shown) [Example 18, N-(2-(2-(4-Ethyl-6,7-dihydrothieno[3,2-c]pyridin-5(4H)-yl)-2-oxoethoxy)ethyl)-4-methoxy-N,2,6-trimethyl benzenesulfonamide], the inhibition at 10 µM in experiment [1] is 99%; in experiment [2] it was 109%.
With `O=C(CC1CCCCN1S(=O)(=O)c1cccc(C(F)(F)F)c1)N1CCc2sccc2C1c1ccc(F)cc1` (stereo not shown) [Example 19, 1-(4-(4-fluorophenyl)-6,7-dihydrothieno[3,2-c]pyridin-5(4H)-yl)-2-(1-(3-(trifluoromethyl)phenylsulfonyl)piperidin-2-yl)ethanone], the values for the inhibition at 10 µM in experiment [1] and in experiment [2] were 35% and 83%, respectively.
On to `Cc1ccc(C2c3ccsc3CCN2C(=O)C[C@@H](NS(=O)(=O)c2ccc3ccccc3c2)c2ccccc2)cc1` (stereo partly drawn) [Example 20, N-((1R)-3-oxo-1-phenyl-3-(4-p-tolyl-6,7-dihydrothieno[3,2-c]pyridin-5(4H)-yl)propyl)naphthalene-2-sulfonamide], for which the inhibition at 10 µM was determined as 11% in experiment [1] and 96% in experiment [2].
As to `O=C(C[C@@H](NS(=O)(=O)c1ccc2ccccc2c1)c1ccccc1)N1CCc2sccc2C1c1ccc(F)cc1` (stereo partly drawn) [Example 21, N-((1R)-3-(4-(4-fluorophenyl)-6,7-dihydrothieno[3,2-c]pyridin-5(4H)-yl)-3-oxo-1-phenylpropyl)naphthalene-2-sulfonamide], the inhibition at 10 µM in experiment [1] was found to be 34%; in experiment [2], 70%.
In the case of `COc1cc(C)c(S(=O)(=O)N2CCCCC2COCC(=O)N2CCc3sccc3C2c2ccc(F)cc2)c(C)c1` (stereo not shown) [Example 22, 1-(4-(4-fluorophenyl)-6,7-dihydrothieno[3,2-c]pyridin-5(4H)-yl)-2-((1-(4-methoxy-2,6-dimethylphenylsulfonyl)piperidin-2-yl)methoxy)ethanone], the inhibition at 10 µM was determined as 96% in experiment [1] and 100% in experiment [2].
On to `CCC1c2ccsc2CCN1C(=O)CCCC1CCCCN1S(=O)(=O)c1c(C)cc(OC)cc1C` (stereo not shown) [Example 23, 1-(4-Ethyl-6,7-dihydrothieno[3,2-c]pyridin-5(4H)-yl)-4-(1-(4-methoxy-2,6-dimethylphenylsulfonyl)piperidin-2-yl)butan-1-one], for which the inhibition at 10 µM in experiment [1] was 91%; in experiment [2] it was 105%.
The corresponding values for `COc1cc(C)c(S(=O)(=O)N2CCCCC2COCC(=O)N2CCc3onc(-c4ccc(Cl)cc4)c3C2)c(C)c1` (stereo not shown) [Example 24, 1-(3-(4-chlorophenyl)-6,7-dihydroisoxazolo[4,5-c]pyridin-5(4H)-yl)-2-((1-(4-methoxy-2,6-dimethylphenylsulfonyl)piperidin-2-yl)methoxy)ethanone] are 73% and 100%.
Regarding `COc1cc(C)c(S(=O)(=O)N2CCCCC2COCC(=O)N2CCc3onc(-c4ccc(F)cc4)c3C2)c(C)c1` (stereo not shown) [Example 25, 1-(3-(4-fluorophenyl)-6,7-dihydroisoxazolo[4,5-c]pyridin-5(4H)-yl)-2-((1-(4-methoxy-2,6-dimethylphenylsulfonyl)piperidin-2-yl)methoxy)ethanone], the inhibition at 10 µM was found to be 86% in experiment [1] and 103% in experiment [2].
Turning to `O=C(C[C@@H](NS(=O)(=O)c1ccc2ccccc2c1)c1ccccc1)N1CCc2sc(CN3CCCCC3)cc2C1` [Example 26, (R)—N-(3-Oxo-1-phenyl-3-(2-(piperidin-1-ylmethyl)-6,7-dihydrothieno[3,2-c]pyridin-5(4H)-yl)propyl)naphthalene-2-sulfonamide], the inhibition at 10 µM is 97% in experiment [1] and 101% in experiment [2].
The matching figures for `COc1cc(C)c(S(=O)(=O)N2CCCCC2COCC(=O)N2CCc3sc(CN4CCCCC4)cc3C2)c(C)c1` (stereo not shown) [Example 27, 2-((1-(4-Methoxy-2,6-dimethylphenylsulfonyl)piperidin-2-yl)methoxy)-1-(2-(piperidin-1-ylmethyl)-6,7-dihydrothieno[3,2-c]pyridin-5(4H)-yl)ethanone]: 100% and 106%.
Consider `COc1cc(C)c(S(=O)(=O)N(C)CCOCC(=O)N2CCc3sc(CN4CCCCC4)cc3C2)c(C)c1` [Example 28, 4-Methoxy-N,2,6-trimethyl-N-(2-(2-oxo-2-(2-(piperidin-1-yl-methyl)-6,7-dihydrothieno[3,2-c]pyridin-5(4H)-yl)ethoxy)ethyl)benzene-sulfonamide], for which the inhibition at 10 µM is 100% in experiment [1] and 109% in experiment [2].

Values taken from patent US8268814B2, “Substituted sulfonamide compounds” (Gruenenthal GmbH, priority 2008, dated 2012).
